Test system: chronic colitis induced by DSS treatment
Assay: Apyrase administration in DSS-induced chronic colitis (weight)
Type: in vivo, mice
Conditions: apyrase 0.4 units/g weight at week five
Source text: Adult mice (55-75 day old) sex-matched hemizygous CD39+/−, CD39−/−, and CD39+/+ littermates were given 3-5% (w/v) DSS in drinking water for seven days to induce a pathological state reminiscent of acute ulcerative colitis. Mice were fasted on day 7, and sacrificed the next day. Tissue was collected for Haematoxylin and Eosin staining, immunohistochemistry staining (for CD39, CD39L1, P-selectin, Fibrin, and P2Y1, for example), Western blot analysis, and NTPDase activity. To induce chronic ulcerative colitis, mice were treated with 3% DSS for seven days followed by a one week rest period. DSS treatment was resumed for seven days followed by another rest period of seven days. Treatment was resumed in the fifth week for seven days. At least six age- and sex-matched hemizygous CD39+/−, CD39−/−, and CD39+/+ mice were studied at the end of seven days of DSS treatment (acute colitis) or 5 week DSS treatment (chronic colitis). Mice were housed in standard cages and were allowed to drink and feed ad libitum. Animals were weighed daily. To test the hypothesis that the administration of an NTPDase can delay the damage caused by colitis, CD39+/+ and CD39+/− mice, following the induction of chronic colitis by DSS treatment, were administered with apyrase, an NTPDase (see FIGS. 4A and 4B). Apyrase was administered at 0.4 units/g weight at week five following the initial treatment with DSS.

## apyrase
CD39+/+ mice
  weight following apyrase treatment: significant gain in weight
CD39−/+ (hemizygous) mice, compared with effect in CD39+/+ mice
  weight following apyrase treatment: further enhanced

— patent US20050037382A1, “Methods and compositions for treating and preventing autoimmune disorders” (priority 2003, published 2005)
